Consider 16 molecules from patent publication US11396496B2, “1,4-substituted isoquinoline inhibitors of KEAP1/NRF2 protein-protein interaction” (THE BOARD OF TRUSTEES OF THE UNIVERSITY OF ILLINOIS, priority 2018, dated 2022).

For one series, the target named is Kelch domain of KEAP1 (Homo sapiens (Human), UniProt Q14145). Kind of series: Fluorescence anisotropy assay of KEAP1-NRF2 interaction inhibition. It counts as binding. As to conditions: for binding affinity (in words): qualitative statement on the fluorescence anisotropy results. The procedure:
The IC50 of the compounds for inhibiting the interaction of a fluorescent NRF2 peptide and the Kelch domain of KEAP1 was determined using fluorescence anisotropy. See Inoyama et al., J. Biomol.
Test compounds' ability to inhibit the KEAP1-NRF2 interaction were assayed using the Kelch domain of KEAP1 and a fluorescein-labeled 9-mer peptide containing the ETGE motif of the Neh2 domain of NRF2. The experiments were performed in triplicate, and sigmoidal concentration-response curves were fitted to the data using Graphpad Prism 6.1 software.
(Fluorescence polarisation rises when a labelled molecule tumbles more slowly, as on binding a larger partner.)

The test system of another series is NRF2. Put plainly: NRF2 stabilization by Western Blot in HaCaT keratinocytes. The series is classed as cell-based, human. To be noted: HaCaT cells, 10 μM compound, 6 h, relative to vehicle (DMSO) control. The procedure:
(§1) Molecules that block the degradatior of NRF2 serve as NRF2 activators. This has the effect of stabilizing NRF2 protein levels and upregulating target gene levels, such as NQO1. […] CDDO is a positive control compound that activates NRF2 through an electrophilic mechanism. […] HaCat Cells were treated with 10 μM compound unless otherwise indicated.
(§2) Spontaneously immortalized human keratinocytes (HaCaT cell line) were grown in Dubecco's modified Eagle's medium (DMEM) with 10% fetal bovine serum and 1% antibiotics. […] Cells were lysed in a 20 mM Tris (pH 7.5) buffer containing 150 mM NaCl, 1 mM EDTA, 1 mM EGTA, 1% Triton X-100, 2.5 mM sodium pyrophosphate, 1 mM Na3VO4, 5 mM β-glycerophosphate, and 1 μg/mL leupeptin. Equal amount of protein (˜40 μg) was separated on a 10% SDS-PAGE, blotted on the membrane, and probed with antiNRF2, or anti-NQO1 antibody. […] CDDO is a positive control compound that activates NRF2 through an electrophilic mechanism.

The test system of series [1] is NADPH quinone oxidoreductase (NQO1). Put plainly: NRF2 target gene activation: NQO1 protein levels by Western Blot in HaCaT keratinocytes. It counts as cell-based, human. As to conditions: HaCaT cells, 10 μM compound, 6 h. The procedure:
as §1, §2
(In western blotting, separated proteins are transferred to a membrane and probed.)

Series [2] can be described thus: Microsomal stability study. To be noted: human liver microsomes in buffer, 20 min. The series is classed as in vitro ADME. An excerpt: LC-MS grade acetonitrile (MeCN), methanol (MeOH), formic acid, and biology grade DMSO were purchased from Fisher Scientific (Pittsburgh, Pa.). LC-MS grade water was generated using a Barnstead Nanopure Diamond water system (Thermo Scientific, Pittsburgh, Pa.). All other reagents, if not specified, were purchased from Sigma-Aldrich (Saint Louis, Mo.). Pooled human liver microsomes and mouse liver microsomes were purchased from Sekisui XenoTech (Kansas City, Kans.). Preparation of Standard. The initial stock solutions of test compounds were prepared in DMSO at 10 mM, and then diluted with MeOH to 200 μM before use. All stock solutions were stored at −20° C. Liver microsomes were aliquoted upon arrival and stored at −80° C. Samples were analyzed on a Shimadzu 8040 triple-quadrupole mass spectrometer (Shimadzu, Addison, Ill.) equipped with electrospray ion source and Shimadzu Nexera XR UHPLC system. Mobile phase A contained water with 0.025% (v/v) FA, and mobile phase B consisted of MeCN with 0.1% (v/v) FA. Five microliters of sample was injected. Study compounds were eluted on a Kinetex C18 column (3.0×50 mm, 2.6 μm; Phenomenex, Torrance, Calif.) at 500 μL/min using a gradient program: mobile phase B started and maintained at 15% for 1 min, then increased to 95% in 4 min. Nebulizing gas flow and drying gas flow were set to 2 and 15 L/min. DL temperature, heat block temperature, and ion spray voltage were maintained at 300° C., 450° C. and 4500 V, respectively.
(In general: Liver microsomes are vesicles of endoplasmic reticulum, rich in cytochrome P450 enzymes.)

Series [3] is described as follows: Log D7.4 (1-octanol / HEPES buffer pH 7.4). It counts as physicochemical. As to conditions: HEPES buffer pH 7.4 / 1-octanol, mean of triplicate; for logD at 1 h: 1-octanol / HEPES buffer. The procedure:
This solution was diluted to nine known concentration solutions (1200, 800, 400, 120, 80, 40, 12, 8, and 4 μM) in MeCN. Each solution was analyzed by HPLC, and a calibration curve was plotted using the peak areas from the standard concentrations. 20 μL of the 10 mM DMSO stock solution of each compound was partitioned between […] of buffer (200 mM HEPES, 150 mM NaCl, pH 7.4) and […] of 1-octanol. The mixture was mixed for 1 h. Each layer was injected separately onto a Shimadzu LC-20AB HPLC system (Solvent system: gradient from 15% MeCN/85% H2O to 95% MeCN/5% H2O (+0.1% formic acid) over 13 min; Column, Shimadzu C18, […], 50×4.6 mm; UV, 254 nm). The equilibrium solubility in the buffer layer and the 1-octanol layer of test compounds was determined by quantifying the concentration of test solutions against the calibration curve. Experiments were run in triplicate, and results were tabulated and reported as mean. […] Thus, including an electron withdrawing group at position R^4 results in improved pharmacokinetics, such as an improved ability to cross cell membranes.

[4] abbreviates: fluorescent NRF2 peptide and Kelch domain of KEAP1, fluorescence anisotropy.

Kelch domain of KEAP1, sequence (Q14145 321-609): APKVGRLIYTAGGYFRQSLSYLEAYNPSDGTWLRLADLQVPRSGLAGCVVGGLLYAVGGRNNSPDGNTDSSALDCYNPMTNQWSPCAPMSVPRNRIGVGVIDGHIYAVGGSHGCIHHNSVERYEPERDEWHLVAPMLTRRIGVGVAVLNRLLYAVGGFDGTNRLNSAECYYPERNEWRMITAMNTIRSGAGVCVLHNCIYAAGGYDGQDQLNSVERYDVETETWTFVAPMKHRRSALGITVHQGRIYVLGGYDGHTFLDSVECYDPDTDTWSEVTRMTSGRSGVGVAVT

For `COc1ccc(S(=O)(=O)Nc2cnc(N(CC(=O)O)S(=O)(=O)c3ccc(OC)cc3)c3ccccc23)cc1` [Compound A6, N-(4-((4-methoxyphenyl)sulfonamido)isoquinolin-1-yl)-N-((4-methoxyphenyl)sulfonyl)glycine], the IC50 (in general, the point on the concentration scale where inhibition reaches its midpoint) against Kelch domain of KEAP1 (setting [4]) turned out to be 0.212 µM. In addition, the “stabilization of NRF2 expression” value with NRF2 is given as “stabilize NRF2 expression”. Besides, the “levels of NQO1” value in series [1] is “increase the levels of NQO1”. Moreover, the metabolic stability result in series [2] is “degraded substantially”. Moreover, the logD – broadly, lipophilicity at a set pH, counting ionised and neutral species – in series [3] was −1.6.

With `COc1ccc(S(=O)(=O)N(CC(=O)O)c2cnc(N(CC(=O)O)S(=O)(=O)c3ccc(OC)cc3)c3ccccc23)cc1` [Compound A1, 2,2′-(isoquinoline-1,4-diylbis(((4-methoxyphenyl)sulfonyl)azanediyl))diacetic acid], the logD in series [3] is −1.5.

As for `COc1ccc(S(=O)(=O)Nc2cnc(N3CC[C@H](c4ccccc4)C3)c3ccccc23)cc1` [Compound C8, (R)-4-methoxy-N-(1-(3-phenylpyrrolidin-1-yl)isoquinolin-4-yl)benzenesulfonamide], the IC50 was more than 25 µM against Kelch domain of KEAP1 (Table C, unit inferred) and more than 25 µM on Kelch domain of KEAP1 (setting [4]).

Take `COc1ccc(S(=O)(=O)Nc2cnc(N3CC[C@@H](c4ccccc4)C3)c3ccccc23)cc1` [Compound C7, (S)-4-methoxy-N-(1-(3-phenylpyrrolidin-1-yl)isoquinolin-4-yl)benzenesulfonamide]: the 50% inhibitory concentration (IC50) against Kelch domain of KEAP1 (Table C, unit inferred) was more than 25 µM; against Kelch domain of KEAP1 (setting [4]), more than 25 µM.

In the case of `COc1ccc(S(=O)(=O)N(CC(F)(F)F)c2cnc(N(CC(=O)O)S(=O)(=O)c3ccc(OC)cc3)c3ccccc23)cc1` [Compound B0, N-(4-((4-methoxy-N-(2,2,2-trifluoroethyl)phenyl)sulfonamido)isoquinolin-1-yl)-N-((4-methoxyphenyl)sulfonyl)glycine], the logD at 1 h in series [3] stood at 0.5.

With `COc1ccc(S(=O)(=O)Nc2ccc(CCC(=O)O)c3ccccc23)cc1` [Compound C11, 3-(4-((4-methoxyphenyl)sulfonamido)naphthalen-1-yl)propanoic acid], the IC50 on Kelch domain of KEAP1 (Table C, unit inferred) is 6 µM; at Kelch domain of KEAP1 (setting [4]) it was 6 µM.

As for `COc1ccc(S(=O)(=O)Nc2ccc(/C=C/C(=O)O)c3ccccc23)cc1` [Compound C9, (E)-3-(4-((4-methoxyphenyl)sulfonamido)naphthalen-1-yl)acrylic acid], the IC50 against Kelch domain of KEAP1 (Table C, unit inferred) was found to be 9.3 µM; against Kelch domain of KEAP1 (setting [4]) it was 9.3 µM.

Molecule `O=C(O)CN(c1cnc(N(CC(=O)O)S(=O)(=O)c2ccc(F)cc2)c2ccccc12)S(=O)(=O)c1ccc(F)cc1` [Compound A5, 2,2′-(isoquinoline-1,4-diylbis(((4-fluorophenyl)sulfonyl)azanediyl))diacetic acid] displayed an IC50 against Kelch domain of KEAP1 (setting [4]) of 0.35 µM. For the same molecule, the “binding affinity (in words)” value on Kelch domain of KEAP1 is “high binding affinities”.

`COc1ccc(S(=O)(=O)N(C)c2cnc(N(CC(=O)O)S(=O)(=O)c3ccc(OC)cc3)c3ccccc23)cc1` [Compound A8, N-(4-((4-methoxy-N-methylphenyl)sulfonamido)isoquinolin-1-yl)-N-((4-methoxyphenyl)sulfonyl)glycine] came in with an IC50 against Kelch domain of KEAP1 (setting [4]) of 1.1 µM. Also, the “binding affinity (in words)” value at Kelch domain of KEAP1 was “significantly diminished the binding affinity”. The metabolic stability result in series [2] was “degraded substantially”. The molecule also showed a logD at 1 h in series [3] of 0.

For `COc1ccc(S(=O)(=O)Nc2cnc(N3CCC[C@H]3C(=O)O)c3ccccc23)cc1` [Compound C6, (4-((4-methoxyphenyl)sulfonamido)isoquinolin-1-yl)-L-proline], the IC50 against Kelch domain of KEAP1 (Table C, unit inferred) is 5 µM; on Kelch domain of KEAP1 (setting [4]) it was 5 µM.

Turning to `COc1ccc(S(=O)(=O)N(C)c2ncc(N(CC(=O)O)S(=O)(=O)c3ccc(OC)cc3)c3ccccc23)cc1` [Compound A3, N-(1-((4-methoxy-N-methylphenyl)sulfonamido)isoquinolin-4-yl)-N-((4-methoxyphenyl)sulfonyl)glycine], the IC50 against Kelch domain of KEAP1 (setting [4]) came to 2 µM. In series [2], the metabolic stability entry is on record as “significantly more metabolically stable”. In series [3], the logD at 1 h came to 0.

For `[2H]C([2H])([2H])N(c1cnc(N(CC(=O)O)S(=O)(=O)c2ccc(OC)cc2)c2ccccc12)S(=O)(=O)c1ccc(OC)cc1` [Compound A9, N-(4-((4-methoxy-N-(methyl-d3)phenyl)sulfonamido)isoquinolin-1-yl)-N-((4-methoxyphenyl)sulfonyl)glycine], on Kelch domain of KEAP1 (setting [4]), the IC50 is 1.23 µM. For the same molecule, at Kelch domain of KEAP1, the “binding affinity (in words)” value is given as “significantly diminished the binding affinity”. Moreover, the metabolic stability result in series [2] is recorded as “degraded substantially”.

`O=C(O)CN(c1cnc(N(CC(=O)O)S(=O)(=O)c2ccc(O)cc2)c2ccccc12)S(=O)(=O)c1ccc(O)cc1` [Compound A4, 2,2′-(isoquinoline-1,4-diylbis(((4-hydroxyphenyl)sulfonyl)azanediyl))diacetic acid] showed an IC50 at Kelch domain of KEAP1 (setting [4]) of 0.53 µM. The “binding affinity (in words)” value on Kelch domain of KEAP1 is on record as “high binding affinities”.

For the molecule `COc1ccc(S(=O)(=O)Nc2cnc(N3CCC[C@@H]3C(=O)O)c3ccccc23)cc1` [Compound C5, (4-((4-methoxyphenyl)sulfonamido)isoquinolin-1-yl)-D-proline], the IC50 against Kelch domain of KEAP1 (Table C, unit inferred) is more than 25 µM; against Kelch domain of KEAP1 (setting [4]), more than 25 µM.

For `COc1ccc(CCc2ccc(NS(=O)(=O)c3ccc(OC)cc3)c3ccccc23)cc1` [Compound C13, 4-methoxy-N-(4-(4-methoxyphenethyl)naphthalen-1-yl)benzenesulfonamide], the IC50 on Kelch domain of KEAP1 (Table C, unit inferred) was more than 25 µM; on Kelch domain of KEAP1 (setting [4]) it was more than 25 µM.

In the case of `COc1ccc(S(=O)(=O)Nc2ncc(N(CC(=O)O)S(=O)(=O)c3ccc(OC)cc3)c3ccccc23)cc1` [Compound A2, N-(1-((4-methoxyphenyl)sulfonamido)isoquinolin-4-yl)-N-((4-methoxyphenyl)sulfonyl)glycine], on Kelch domain of KEAP1 (setting [4]), the midpoint of inhibition, the IC50, lay at 1.2 µM. The molecule also registered a logD at 1 h in series [3] of -0.5.
